# Assay results reported in patent publication US4578397A, “Indeno(1,2-b)pyrrole derivatives” (Yoshitomi Pharmaceutical Industries, Ltd., priority 1982, dated 1986).
# How the values were obtained:
# [1] = system: bicuculline-induced tonic convulsion; test: Anti-bicuculline effect (anti-tonic convulsion), oral; assay type: in vivo; details: Mus musculus, 5 min; bicuculline 0.6 mg/kg i.v. 60 min after oral test compound; protection of 50% against tonic convulsion within 5 min; male dd-mice; read-out: Anti-bicuculline-convulsive effect, ED50
# Method: 2. Anti-bicuculline Effect
# Groups of 4-14 male dd-mice were used. Bicuculline (0.6 mg/kg) was administered intravenously 60 minutes after the oral administration of test compound, and the ED50, the dose required to protect 50% of the animals against tonic convulsion within 5 minutes was determined.
# [2] = system: picrotoxin-induced lethality; test: Anti-picrotoxin effect (anti-lethal), oral; assay type: in vivo, male dd-mice; details: Mus musculus, 0.5 h, read-out: Anti-picrotoxin-lethal effect, ED50
# Method: 1. Anti-picrotoxin Effect
# Groups of 7-14 male dd-mice were used. Picrotoxin (5 mg/kg) was administered subcutaneously 60 minutes after the oral administration of test compound, and the 50% anti-lethal dose (ED50) was calculated from the servival rate within 30 minutes.
# [3] = administered peripherally; cited from earlier work
Structure (SMILES),ED50 [1] [mg/kg],ED50 [2] [mg/kg],transmission through the blood-brain barrier [3]
"O=C1CC2Cc3ccccc3C2N1 (centres unmarked) [Compound E, 1,2,3,3a,4,8bHexahydro-indeno[1,2b]pyrrol2-one, reference compound]",> 100,> 100,–
"Fc1ccc2c(c1)CC1CC(=S)NC21 (centres unmarked) [C, 6-Fluoro-1,2,3,3a,4,8b-hexahydro-indeno[1,2-b]pyrrol-2-thione]",70,45,–
"CN1C(=O)CC2Cc3c(Cl)cccc3C21 (centres unmarked) [B, 5-chloro-1-methyl-1,2,3,3a,4,8b-hexahydro-indeno[1,2-a]pyrrol-2-one]",68,36,–
"O=C1CC2Cc3c(Cl)cccc3C2N1 (centres unmarked) [A, 5-chloro-1,2,3,3a,4,8b-hexahydro-indeno[1,2-b]pyrrol-2-one]",75,18,–
"O=C1CC2Cc3ccc(F)cc3C2N1 (centres unmarked) [D, 7-Fluoro-1,2,3,3a,4,8b-hexahydro-indeno[1,2-b]pyrrol-2-one]",56,48,–
"NCCCC(=O)O [GABA, gamma-aminobutyric acid]",–,–,hard to transmit through the blood-brain barrier
